Data taken from patent US20220073553A1, “METHOD FOR EXTRACTING HIGH-PURITY POLYDEOXYRIBONUCLEOTIDE FROM SALMON TESTES” (Bio Medi pharm Co. Ltd., priority 2020, published 2022).
Where “and” joins values, the source holds several entries; their conditions need not be identical. Equal values may be shown once. No end group written: not given here.

Test system: sperm from regions of salmon testes
Assay: Motility of sperm from regions of salmon testes after hormone treatment
Type: cell-based
Conditions: regions C of testes of male salmon caught in a river in October; treated with different types of hormones
Description: The immature testicular regions A, B, and C are ground and diluted with an artificial seminal plasma. The grinding is performed by the following procedure. First, the testes are cut into small pieces with scissors such that the membranes surrounding the spermatids of the testes are peeled off. […] Here, care should be taken because a high speed of the impeller causes cell disruption, increasing the possibility that impurities may increase. Immature regions (except for regions D where semen leaks out, see FIG. 4) were collected by cutting the testes of male salmon. […] Regions C of the testes of male salmon caught in a river in October were treated with three different types of hormones: hGC, luteinizing hormone-releasing hormone (LhRH), and DHP.

In the case of “luteinizing hormone-releasing hormone (QHWSYGLRPG; ends and bridges not checked; UniProt P01148 24-33, looked up) [LhRH, hormone used for comparison with hCG]”, the “Sperm motility (%)” value is reported as 5% and 5 ± 2.8%.
